The target in test [1] is cAMP-dependent protein kinase catalytic subunit alpha (Homo sapiens, UniProt P17612). Description: Inhibitory concentration against recombinant human cAMP-dependent Protein kinase A.
In test [2] the target is Protein kinase C alpha type (Homo sapiens, UniProt P17252). Description: Inhibitory concentration against recombinant human Protein kinase C alpha isozyme.
For test [3], the target named is T1, Protein kinase C beta type (Homo sapiens, UniProt P05771). Description: Inhibitory concentration against recombinant human Protein kinase C beta 1 isozyme.
T1 sequence (P05771 whole entry): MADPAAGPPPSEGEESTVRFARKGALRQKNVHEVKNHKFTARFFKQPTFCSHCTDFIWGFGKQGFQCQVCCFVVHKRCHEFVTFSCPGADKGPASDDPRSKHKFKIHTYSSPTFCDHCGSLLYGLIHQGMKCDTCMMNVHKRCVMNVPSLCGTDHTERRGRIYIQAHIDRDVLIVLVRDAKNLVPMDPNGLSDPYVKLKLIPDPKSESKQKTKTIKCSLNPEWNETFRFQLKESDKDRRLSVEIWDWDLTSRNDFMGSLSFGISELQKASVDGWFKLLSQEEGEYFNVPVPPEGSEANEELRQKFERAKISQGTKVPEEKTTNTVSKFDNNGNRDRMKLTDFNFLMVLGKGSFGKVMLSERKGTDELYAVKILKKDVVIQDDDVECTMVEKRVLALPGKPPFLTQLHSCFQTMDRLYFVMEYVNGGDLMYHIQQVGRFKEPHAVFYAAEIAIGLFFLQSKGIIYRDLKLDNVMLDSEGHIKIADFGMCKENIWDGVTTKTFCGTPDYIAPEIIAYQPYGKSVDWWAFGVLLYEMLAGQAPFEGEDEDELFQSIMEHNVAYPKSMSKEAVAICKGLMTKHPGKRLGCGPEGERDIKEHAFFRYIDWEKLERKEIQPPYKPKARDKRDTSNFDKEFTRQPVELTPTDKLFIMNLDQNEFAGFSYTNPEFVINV
Test [4] addresses T2, Protein kinase C epsilon type (Homo sapiens, UniProt Q02156).
T2 sequence (Q02156 whole entry): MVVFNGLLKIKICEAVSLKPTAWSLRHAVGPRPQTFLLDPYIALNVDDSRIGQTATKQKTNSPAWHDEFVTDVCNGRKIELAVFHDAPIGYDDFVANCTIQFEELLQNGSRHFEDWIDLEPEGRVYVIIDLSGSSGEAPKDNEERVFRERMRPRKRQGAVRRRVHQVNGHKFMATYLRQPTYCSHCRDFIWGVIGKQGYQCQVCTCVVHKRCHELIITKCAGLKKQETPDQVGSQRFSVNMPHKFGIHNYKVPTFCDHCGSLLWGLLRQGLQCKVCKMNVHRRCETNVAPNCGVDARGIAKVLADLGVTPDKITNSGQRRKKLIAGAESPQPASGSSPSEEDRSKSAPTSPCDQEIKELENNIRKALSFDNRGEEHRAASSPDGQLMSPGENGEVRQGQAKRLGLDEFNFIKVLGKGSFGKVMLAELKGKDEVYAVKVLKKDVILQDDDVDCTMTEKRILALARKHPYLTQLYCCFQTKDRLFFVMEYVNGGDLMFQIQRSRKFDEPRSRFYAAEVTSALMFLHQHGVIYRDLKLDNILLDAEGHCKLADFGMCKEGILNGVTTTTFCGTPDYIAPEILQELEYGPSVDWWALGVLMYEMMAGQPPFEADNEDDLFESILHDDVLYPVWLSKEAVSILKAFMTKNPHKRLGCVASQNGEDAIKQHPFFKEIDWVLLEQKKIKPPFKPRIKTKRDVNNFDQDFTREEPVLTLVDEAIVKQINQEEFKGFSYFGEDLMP
Description: Inhibitory concentration against recombinant human Protein kinase C epsilon isozyme.

In test [5] the target is Protein kinase C gamma type (Homo sapiens, UniProt P05129). Description: Inhibitory concentration against recombinant human Protein kinase C gamma isozyme.
The target of test [6] is Protein kinase C delta type (Homo sapiens, UniProt Q05655). Description: Inhibitory concentration against recombinant human Protein kinase C delta isozyme.
Chain of Protein kinase C delta type (Q05655 whole entry): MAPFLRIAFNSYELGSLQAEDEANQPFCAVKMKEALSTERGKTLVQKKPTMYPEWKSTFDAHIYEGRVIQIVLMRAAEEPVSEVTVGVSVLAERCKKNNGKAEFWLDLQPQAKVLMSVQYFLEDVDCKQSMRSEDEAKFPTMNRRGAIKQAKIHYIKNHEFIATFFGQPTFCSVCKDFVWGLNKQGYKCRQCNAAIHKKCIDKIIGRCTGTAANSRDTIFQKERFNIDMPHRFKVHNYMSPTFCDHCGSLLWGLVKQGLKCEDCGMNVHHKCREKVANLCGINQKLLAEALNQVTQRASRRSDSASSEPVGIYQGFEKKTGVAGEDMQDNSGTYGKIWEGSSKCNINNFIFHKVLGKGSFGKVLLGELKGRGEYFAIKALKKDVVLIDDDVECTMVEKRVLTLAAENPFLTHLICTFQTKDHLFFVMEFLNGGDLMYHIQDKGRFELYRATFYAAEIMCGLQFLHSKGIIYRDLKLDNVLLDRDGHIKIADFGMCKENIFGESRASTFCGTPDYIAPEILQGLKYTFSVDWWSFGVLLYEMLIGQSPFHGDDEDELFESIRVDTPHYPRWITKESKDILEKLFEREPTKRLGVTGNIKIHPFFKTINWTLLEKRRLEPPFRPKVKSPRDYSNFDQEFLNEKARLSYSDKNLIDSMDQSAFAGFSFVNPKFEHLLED
Test [7] has as its target T3, Protein kinase C zeta type (Homo sapiens, UniProt Q05513).
T3 sequence (Q05513 whole entry): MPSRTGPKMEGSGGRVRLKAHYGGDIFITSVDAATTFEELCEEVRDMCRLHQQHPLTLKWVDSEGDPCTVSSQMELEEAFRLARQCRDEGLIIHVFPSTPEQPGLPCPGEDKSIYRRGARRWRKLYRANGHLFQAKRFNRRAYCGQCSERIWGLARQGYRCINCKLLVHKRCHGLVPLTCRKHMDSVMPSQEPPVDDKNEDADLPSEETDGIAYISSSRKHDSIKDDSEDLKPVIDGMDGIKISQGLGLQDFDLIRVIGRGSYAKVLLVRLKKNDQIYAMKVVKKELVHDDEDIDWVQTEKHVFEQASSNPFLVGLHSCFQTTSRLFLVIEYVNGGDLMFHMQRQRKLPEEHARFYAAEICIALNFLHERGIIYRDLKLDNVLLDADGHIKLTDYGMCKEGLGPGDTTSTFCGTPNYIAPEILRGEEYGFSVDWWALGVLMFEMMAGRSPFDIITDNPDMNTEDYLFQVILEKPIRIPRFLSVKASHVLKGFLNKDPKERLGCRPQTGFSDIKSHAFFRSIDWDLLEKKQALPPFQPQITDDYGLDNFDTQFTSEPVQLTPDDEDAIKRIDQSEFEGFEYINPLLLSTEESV
Description: Inhibitory concentration against recombinant human Protein kinase C zeta isozyme.

Test [8] concerns the target T1, Protein kinase C beta type. Description: Inhibitory concentration against recombinant human Protein kinase C beta 2 isozyme.
Test [9] has as its target Protein kinase C eta type (Homo sapiens, UniProt P24723). Description: Inhibitory concentration against recombinant human Protein kinase C eta isozyme.

Molecules are shown by their SMILES. Bounds are passed on as bounds.

Chain of Protein kinase C eta type (P24723 whole entry): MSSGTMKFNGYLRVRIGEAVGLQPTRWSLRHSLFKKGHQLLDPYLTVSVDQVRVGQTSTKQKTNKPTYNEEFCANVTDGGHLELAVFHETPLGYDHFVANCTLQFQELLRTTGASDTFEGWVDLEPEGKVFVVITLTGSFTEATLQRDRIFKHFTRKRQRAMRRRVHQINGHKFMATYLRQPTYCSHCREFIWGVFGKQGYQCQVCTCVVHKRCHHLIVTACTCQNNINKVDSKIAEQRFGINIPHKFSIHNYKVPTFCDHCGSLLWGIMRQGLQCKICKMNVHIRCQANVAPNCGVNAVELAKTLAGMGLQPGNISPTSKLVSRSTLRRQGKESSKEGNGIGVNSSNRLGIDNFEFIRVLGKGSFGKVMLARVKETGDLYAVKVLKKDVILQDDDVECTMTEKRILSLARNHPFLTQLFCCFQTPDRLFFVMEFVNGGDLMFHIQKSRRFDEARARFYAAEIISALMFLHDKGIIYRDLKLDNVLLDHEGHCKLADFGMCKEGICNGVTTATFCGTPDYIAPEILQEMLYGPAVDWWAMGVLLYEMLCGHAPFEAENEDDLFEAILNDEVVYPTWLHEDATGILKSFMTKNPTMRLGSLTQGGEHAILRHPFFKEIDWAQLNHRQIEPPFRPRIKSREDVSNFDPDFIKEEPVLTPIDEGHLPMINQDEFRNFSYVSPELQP

`NC[C@@H]1C[C@@H](NC(=O)c2ccc(O)cc2)[C@H](OC(=O)c2cc(O)c(C(=O)c3c(O)cccc3C(=O)O)c(O)c2)C1`: the IC50 in [1] turned out to be 90 nM; in test [2], 20 nM; in test [3], 5 nM; in test [4], 30 nM; in [5], 10 nM; in [6], 20 nM. The IC50 in test [7] stood at 3100 nM; in test [8] it was 5 nM; in [9], 3 nM.
For the compound `O=C(N[C@@H]1CS(=O)(=O)CCC[C@H]1OC(=O)c1cc(O)c(C(=O)c2c(O)cccc2C(=O)O)c(O)c1)c1ccc(O)cc1`, the IC50 in [1] was 38000 nM; in test [2], 9600 nM; in test [3] it was 5200 nM; in [4], 45000 nM; in test [5], 4300 nM; in [6], 4000 nM. Further, the IC50 in [7] was > 150000 nM; in [8], 3600 nM; in [9], 800 nM.
Turning to `O=C(N[C@@H]1CN2CCC(CC2)[C@H]1OC(=O)c1cc(O)c(C(=O)c2c(O)cccc2C(=O)O)c(O)c1)c1ccc(O)cc1`, the IC50 in [1] is 1700 nM; in test [2] it was 410 nM; in test [3], 26 nM; in test [4], 170 nM; in [5], 140 nM; in test [6], 110 nM. For the same compound, the IC50 was 69 nM in test [8] and 26 nM in test [9].
Regarding `O=C(NC1CNCCCC1OC(=O)c1cc(O)c(C(=O)c2c(O)cccc2C(=O)O)c(O)c1)c1ccc(O)cc1` (racemic), the IC50 was found to be 70 nM in [2], 20 nM in [6] and 3500 nM in test [7].
`O=C(N[C@H]1CNCCC[C@@H]1OC(=O)c1cc(O)c(C(=O)c2c(O)cccc2C(=O)O)c(O)c1)c1ccc(O)cc1`: the IC50 was 3000 nM in test [2]; 500 nM in test [3]; 400 nM in [5]; 420 nM in [6]; > 150000 nM in test [7]; 880 nM in test [8]. In addition, the IC50 in test [9] came to 260 nM.
As to `O=C(N[C@@H]1CNC[C@H]1OC(=O)c1cc(O)c(C(=O)c2c(O)cccc2C(=O)O)c(O)c1)c1ccc(O)cc1`, in test [1], the IC50 is 70 nM.
Turning to `O=C(N[C@@H]1CNCC[C@H]1OC(=O)c1cc(O)c(C(=O)c2c(O)cccc2C(=O)O)c(O)c1)c1ccc(O)cc1`, the IC50 in test [1] came to 350 nM; in [9], 90 nM.
With `O=C(N[C@@H]1C[C@H](CO)C[C@H]1OC(=O)c1cc(O)c(C(=O)c2c(O)cccc2C(=O)O)c(O)c1)c1ccc(O)cc1`, the IC50 was 230 nM in test [1]; 10 nM in [2]; 4 nM in test [3]; 160 nM in test [4]; 5 nM in test [5]; 4 nM in [6]. The IC50 in test [8] is 3 nM; in test [9] it was 2 nM.
In the case of `CN1C2CCC1C(NC(=O)c1ccc(O)cc1)C(OC(=O)c1cc(O)c(C(=O)c3c(O)cccc3C(=O)O)c(O)c1)C2` (stereo not drawn), in [1], the IC50 is > 50000 nM.
Turning to `CC(=O)N1C[C@@H](NC(=O)c2ccc(O)cc2)[C@H](OC(=O)c2cc(O)c(C(=O)c3c(O)cccc3C(=O)O)c(O)c2)C1`, the IC50 in test [1] came out at 3600 nM; in [2], 1200 nM; in test [3], 710 nM; in test [4] it was 3700 nM; in [5], 390 nM; in [6], 60 nM. For the same compound, the IC50 in [7] is > 150000 nM; in test [8] it was 820 nM; in [9], 30 nM.
As for `O=C(N[C@@H]1CC(O)C[C@H]1OC(=O)c1cc(O)c(C(=O)c2c(O)cccc2C(=O)O)c(O)c1)c1ccc(O)cc1` (stereo partly drawn), the IC50 in test [1] amounted to 130 nM; in [2], 40 nM; in test [3], 20 nM; in test [4] it was 100 nM; in [5], 20 nM; in [6], 5 nM. Further, the results for the IC50 in test [8] and in test [9] were 10 nM and 3 nM, respectively.
Turning to `O=C(N[C@@H]1COCCC[C@H]1OC(=O)c1cc(O)c(C(=O)c2c(O)cccc2C(=O)O)c(O)c1)c1ccc(O)cc1`, the IC50 in [1] came to 450 nM; in test [2], 6700 nM; in [3], 2500 nM; in test [4], 16000 nM; in test [5] it was 1000 nM; in [6] it was 90 nM. Also, the values for the IC50 in test [7], in test [8] and in test [9] were > 150000 nM, 3300 nM and 10 nM, respectively.
Regarding `O=C(N[C@@H]1CNCCC[C@H]1OC(=O)c1cc(O)c(C(=O)c2c(O)cccc2C(=O)O)c(O)c1)c1ccc(O)cc1` [BALANOL], the IC50 in test [5] stood at 20 nM; in [6], 4 nM; in test [7], 7400 nM.
Turning to `NC[C@H]1C[C@@H](NC(=O)c2ccc(O)cc2)[C@H](OC(=O)c2cc(O)c(C(=O)c3c(O)cccc3C(=O)O)c(O)c2)C1`, the IC50 in [1] amounted to 170 nM; in [2], 20 nM; in [3], 4 nM; in test [4] it was 30 nM; in test [5], 5 nM; in [6], 6 nM. Also, the IC50 in test [7] worked out at 2800 nM; in [8], 4 nM; in test [9], 3 nM.
For `O=C(N[C@@H]1CSCCC[C@H]1OC(=O)c1cc(O)c(C(=O)c2c(O)cccc2C(=O)O)c(O)c1)c1ccc(O)cc1`, the IC50 in test [1] stood at 7500 nM; in test [2] it was 3300 nM; in test [3], 3800 nM; in test [4], 5900 nM; in test [5] it was 1000 nM; in test [6], 90 nM. Moreover, the IC50 in test [8] stood at 2400 nM; in test [9], 100 nM.
For the compound `O=C(N[C@@H]1C[C@@H](O)C[C@H]1OC(=O)c1cc(O)c(C(=O)c2c(O)cccc2C(=O)O)c(O)c1)c1ccc(O)cc1`, the IC50 in test [1] was found to be 250 nM; in test [2] it was 50 nM; in [3] it was 30 nM; in test [4], 150 nM; in test [5] it was 30 nM; in test [6], 6 nM. Besides, the IC50 in test [8] was found to be 20 nM; in test [9] it was 4 nM.
As to `CC(C)N1C[C@@H](NC(=O)c2ccc(O)cc2)[C@H](OC(=O)c2cc(O)c(C(=O)c3c(O)cccc3C(=O)O)c(O)c2)C1`, the IC50 in [1] was < 330 nM; in [2], 240 nM; in [3], 60 nM; in [4], 50 nM; in test [5], 90 nM; in test [6], 40 nM. For the same compound, the IC50 in test [8] was 70 nM; in test [9], 4 nM.
Regarding `O=C(N[C@@H]1C2CCC(C2)[C@H]1OC(=O)c1cc(O)c(C(=O)c2c(O)cccc2C(=O)O)c(O)c1)c1ccc(O)cc1` (stereo partly drawn), the IC50 in test [1] came out at 1900 nM; in [2], 60 nM; in test [3] it was 50 nM; in test [4] it was 30 nM; in test [5], 40 nM; in test [6], 20 nM. In addition, the IC50 in test [8] came out at 30 nM; in [9], 20 nM.
`O=C(N[C@@H]1CCCCC[C@H]1OC(=O)c1cc(O)c(C(=O)c2c(O)cccc2C(=O)O)c(O)c1)c1ccc(O)cc1`: the IC50 in [1] amounted to 1400 nM.
As for `O=C(N[C@@H]1C[C@@H](CO)C[C@H]1OC(=O)c1cc(O)c(C(=O)c2c(O)cccc2C(=O)O)c(O)c1)c1ccc(O)cc1`, the IC50 amounted to 220 nM in [1]; 80 nM in test [2]; 60 nM in test [3]; 270 nM in [4]; 50 nM in test [5]; 20 nM in test [6]. Moreover, the IC50 in [8] and in test [9] was 20 nM in each case.
Consider `O=C(N[C@@H]1C2CC(C3CCCC32)[C@H]1OC(=O)c1cc(O)c(C(=O)c2c(O)cccc2C(=O)O)c(O)c1)c1ccc(O)cc1` (stereo partly drawn), for which, in test [1], the IC50 was 32000 nM.

Values taken from ChEMBL document CHEMBL1130164 (J Med Chem, 1997).
